Measurements taken from article PMC7904827 (Scientific Reports, 2021).

Columns and labels:
[1] = 100 µM, same conditions, compared with GK-667; cited from earlier work
[2] = tested on: neonatal ventricular cardiomyocytes (NVCMs); experiment: In vitro cardioprotection bioassay against daunorubicin toxicity (LDH release); assay type: cell-based, rat; details: 3 h preincubation, DAU 1.2 µM, LDH release after 48 h
Protocol: NVCMs were isolated in-house from 1- to 3-day-old Wistar rats as described previously. The use of animals and experimental protocols were approved by Charles University, Faculty of Pharmacy Animal Welfare Committee. All experiments were performed in accordance with Directive 2010/63/EU on the Protection of Animals Used for Scientific Purposes and in compliance with Animal Research: Reporting of In Vivo Experiments (ARRIVE) guidelines. Newly isolated cardiomyocytes were left for 40 h to form a monolayer of spontaneously beating cardiomyocytes in seeding medium (DMEM/F12 supplemented with 10% HS, 5% FBS, 4% PYR and 1% P/S), which was then replaced with culture medium (DMEM/F12 supplemented with 5% FBS, 4% PYR and 1% P/S). The medium was replaced again after 24 h for new culture medium.
After 3 h, DAU solution (1.2 µM) was added to the media. After another 3 h, the medium was replaced with new (drug-free) exposure medium, and the cardiomyocytes were then kept until the end of the experiment. In addition to cytoprotective properties, the toxicity of the studied agent was also examined; this experiment was performed as described above with only the DAU addition step omitted.
Forty-five hours after the last medium exchange, a sample of medium was taken from each well to assess lactate dehydrogenase (LDH) activity[27]–[29]. For details, see the Supplementary material.
1.5 LDH activity evaluation
The control wells were treated with lysis buffer (0.1 M potassium phosphate, 1% Triton
X-100, 1 mM DTT, 2 mM EDTA; pH 7.8; 15 min; room temperature) to measure the total
cellular LDH level (sum of the activity in the control medium and the lysate). The activity of
LDH was assayed in Tris-HCl buffer (pH 8.9) containing 35 mM sodium lactate and 5 mM
NAD+. The rate of NAD+ reduction was monitored spectrophotometrically at 340 nm for 2 min.
The slope of the linear region and molar absorption coefficient e = 6.22*10 3 M/cm were used
to calculate the LDH activity, and the data were expressed as a percentage of total L DH activity. […]

[3] = tested on: topoisomerase IIβ (TOP2B); details: compared with DEX; cited from earlier work

Compound	decomposition in DMEM [1]	lowest concentration with significant protection against DAU-induced toxicity [2] [µM]	potency in the TOP2B inhibitory assay [3]
CC(C)COC(=O)OCN1C(=O)CN(CCN2CC(=O)N(COC(=O)OCC(C)C)C(=O)C2)CC1=O [sobuzoxane]	much slower	–	–
ICRF-193 [reference compound]	–	0.3	markedly higher potency
